The record followed here is patent publication US7504517B2, “Kv1.5 potassium channel inhibitors” (Wyeth, priority 2006, dated 2009).

T1 sequence (P22460 whole entry): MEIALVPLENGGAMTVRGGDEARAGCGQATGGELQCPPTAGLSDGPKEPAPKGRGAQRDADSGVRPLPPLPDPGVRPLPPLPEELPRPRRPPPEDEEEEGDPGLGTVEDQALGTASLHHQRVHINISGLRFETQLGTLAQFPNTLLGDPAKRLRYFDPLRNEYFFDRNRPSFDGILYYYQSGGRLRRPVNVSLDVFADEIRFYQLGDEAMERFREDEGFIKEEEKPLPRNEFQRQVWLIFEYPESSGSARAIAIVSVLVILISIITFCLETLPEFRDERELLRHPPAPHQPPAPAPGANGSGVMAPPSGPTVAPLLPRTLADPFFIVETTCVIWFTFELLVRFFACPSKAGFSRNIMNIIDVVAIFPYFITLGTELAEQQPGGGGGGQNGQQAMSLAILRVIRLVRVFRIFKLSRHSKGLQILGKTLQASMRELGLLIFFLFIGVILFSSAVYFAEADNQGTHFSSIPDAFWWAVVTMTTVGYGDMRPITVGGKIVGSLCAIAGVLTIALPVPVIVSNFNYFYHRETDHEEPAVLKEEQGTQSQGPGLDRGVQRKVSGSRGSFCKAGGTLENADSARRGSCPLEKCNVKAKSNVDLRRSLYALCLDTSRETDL

The experiment addresses T1, Kv1.5 (Homo sapiens, UniProt P22460).
T1 construct: expressed in transfected cells; host or cells: HEK or LTK- cells
In words: Kv1.5 Patch Clamp EP. It counts as cell-based. The following applies: 1.0 μM, single point; whole cell patch clamp, Kv1.5 stably over expressed in HEK or LTK- cells. As to the method:
The external solution is standard Tyrodes solution. […] Inhibition was measured at the end of the 1 second pulses and expressed relative to controls. Initial Kv1.5 inhibition is estimated by single point determinations done at 1 μM.
(In general: Patch clamp records ionic current or voltage across a cell membrane.)
The inhibition is the change of the read-out against control, counted positive when it falls. Lower therefore signals a response near the control. `COc1ccc(CCN2C(=O)N(N)CC2c2ccc(OC(C)C)cc2)cc1` (stereo not shown) [Compound 164, 1-amino-4-(4-isopropoxyphenyl)-3-[2-(4-methoxyphenyl)ethyl]imidazolidin-2-one]: the inhibition at 1 µM worked out at 2%.
As for `COc1ccc(C2CN(NS(C)(=O)=O)C(=O)N2CCCc2ccccc2)cc1` (stereo not shown) [Compound 46, 1-(Methylsulfonylamino)-3-(3-phenylpropyl)-4-(4-methoxyphenyl)-2-imidazolidinone], at 1 µM the inhibition was 40%.
Still for that read-out and setting: under `COCCOc1ccc(C2CN(N)C(=O)N2CCc2ccc(OC)cc2)cc1` (stereo not shown) [Compound 141, 1-amino-4-[4-(2-methoxyethoxy)phenyl]-3-[2-(4-methoxyphenyl)ethyl]imidazolidin-2-one] stands 4%; under `COc1ccc(CCN2C(=O)N(N)CC2c2ccc(C)cc2)cc1` (stereo not shown) [Compound 159, 1-amino-3-[2-(4-methoxyphenyl)ethyl]-4-(4-methylphenyl)imidazolidin-2-one], 4%.
For the molecule `COc1ccc(CCN2C(=O)N(NS(=O)(=O)CC#N)CC2c2ccc(OC)cc2)cc1` (stereo not shown) [Compound 41, 1-(Cyanomethylsulfonylamino)-3-[2-(4-methoxyphenyl)ethyl]-4-[(4-methoxy)-phenyl]-2-imidazolidinone], the inhibition at 1 µM is 42%.
Regarding `COc1ccc(CCN2C(=O)N(NS(=O)(=O)c3cccnc3)CC2c2ccc(OC)cc2)cc1` (stereo not shown) [Compound 62, 1-[(Pyridin-3-yl)sulfonylamino]-3-[2-(4-methoxyphenyl)ethyl]-4-(4-methoxyphenyl)-2-imidazolidinone], the inhibition at 1 µM worked out at 26%.
Take `COc1ccc(CCN2C(=O)N(NS(=O)(=O)CC(=O)N(C)CC(=O)N(C)C)CC2c2ccc(C3CC3)cc2)cc1` (stereo not shown) [Compound 132, 2-(N-(4-(4-cyclopropylphenyl)-3-(4-methoxyphenethyl)-2-oxoimidazolidin-1-yl)sulfamoyl)-N-(2-(dimethylamino)-2-oxoethyl)-N-methylacetamide]: the inhibition at 1 µM stood at 3%.
Consider `COc1ccc(CCN2C(=O)N(NS(=O)(=O)Cc3cccnc3)CC2C2(c3ccccc3)CC2)cc1` (stereo not shown) [Compound 134, N-{3-[2-(4-methoxyphenyl)ethyl]-2-oxo-4-(1-phenylcyclopropyl)imidazolidin-1-yl}-1-pyridin-3-ylmethanesulfonamide], for which testing at 1 µM gave an inhibition of 22%.
The molecule `COc1ccc(CCN2C(=O)N(NS(C)(=O)=O)CC2C2(c3ccc(F)cc3)CC2)cc1` (stereo not shown) [Compound 165, N-{4-[1-(4-fluorophenyl)cyclopropyl]-3-[2-(4-methoxyphenyl)ethyl]-2-oxoimidazolidin-1-yl}methanesulfonamide] came in with an inhibition at 1 µM of 11%.
`COc1ccc(CCN2C(=O)N(N)CC2C2(c3ccc(F)cc3)CC2)cc1` (stereo not shown) [Compound 163, 1-amino-4-[1-(4-fluorophenyl)cyclopropyl]-3-[2-(4-methoxyphenyl)ethyl]imidazolidin-2-one]: the inhibition at 1 µM was 16%.
In turn, `COc1ccc(CCN2C(=O)N(N)CC2c2ccc(OC)cc2)cc1` (stereo not shown) [Compound 175, 1-amino-4-(4-methoxyphenyl)-3-[2-(4-methoxyphenyl)ethyl]imidazolidin-2-one] registered an inhibition at 1 µM of 7%.
Turning to `COc1ccc(CCN2C(=O)N(NCc3cc[n+]([O-])cc3)CC2c2ccc(C)c(C)c2)cc1` (stereo not shown) [Compound 161, 4-(3,4-dimethylphenyl)-3-[2-(4-methoxyphenyl)ethyl]-1-{[(1-oxidopyridin-4-yl)methyl]amino}imidazolidin-2-one], 1 µM produced 8% inhibition.
On to `CNC(=O)N1CCN(N2CC(c3ccc(C(C)(C)C)cc3)N(CCc3ccc(OC)cc3)C2=O)CC1` (stereo not shown) [Compound 117, 4-{4-(4-tert-butylphenyl)-3-[2-(4-methoxyphenyl)ethyl]-2-oxoimidazolidin-1-yl}-N-methylpiperazine-1-carboxamide], for which at 1 µM the inhibition was 19%.
For `COc1ccc(CCN2C(=O)N(N)CC2c2ccc(OC(F)(F)F)cc2)cc1` (stereo not shown) [Compound 110, 1-amino-3-[2-(4-methoxyphenyl)ethyl]-4-[4-(trifluoromethoxy)phenyl]imidazolidin-2-one], the inhibition at 1 µM was determined as 7%.
The molecule `COc1ccc(CCN2C(=O)N(N)CC2c2ccc(C(C)(C)C)cc2)cc1` (stereo not shown) [Compound 2, 1-Amino-4-[4-(tert-butyl)phenyl]-3-[2-(4-methoxyphenyl)ethyl]-2-imidazolidinone] came in with an inhibition at 1 µM of 46%.
For the molecule `COc1ccc(CCN2C(=O)N(NS(=O)(=O)CC(=O)NC3CC3)CC2c2ccc(OC)cc2)cc1` (stereo not shown) [Compound 56, 1-[[2-(Cyclopropylamino)-2-oxoethyl]sulfonylamino]-3-[2-(4-methoxyphenyl)-ethyl]-4-(4-methoxyphenyl)-2-imidazolidinone], the inhibition at 1 µM worked out at 39%.
In the case of `COc1ccc(CCN2C(=O)N(NS(=O)(=O)N3CCN(C)CC3)CC2c2ccc(C)c(C)c2)cc1` (stereo not shown) [Compound 166, N-{4-(3,4-dimethylphenyl)-3-[2-(4-methoxyphenyl)ethyl]-2-oxoimidazolidin-1-yl}-4-methylpiperazine-1-sulfonamide], at 1 µM the inhibition was 41%.
Consider `COc1ccc(CCN2C(=O)N(NS(C)(=O)=O)CC2c2ccc(OC(C)C)cc2)cc1` (stereo not shown) [Compound 14, 1-(Methylsulfonylamino)-3-[2-(4-methoxyphenyl)ethyl]-4-[(4-isopropyloxy)-phenyl]-2-imidazolidinone], for which the “Kv1.5% inhibition @ 1.0 μM” value is given as 28%.
Molecule `COc1ccc(CCN2C(=O)N(NS(C)(=O)=O)CC2c2ccc(C(F)(F)F)cc2)cc1` (stereo not shown) [Compound 22, 1-(Methylsulfonylamino)-3-[2-(4-methoxyphenyl)ethyl]-4-(4-trifluoromethyl-phenyl)-2-imidazolidinone] gave an inhibition at 1 µM of 30%.
For `COc1ccc(CCN2C(=O)N(NCc3nccn3C)CC2c2ccc(C)c(C)c2)cc1` (stereo not shown) [Compound 138, 4-(3,4-dimethylphenyl)-3-[2-(4-methoxyphenyl)ethyl]-1-{[(1-methyl-1H-imidazol-2-yl)methyl]amino}imidazolidin-2-one], testing at 1 µM gave an inhibition of 7%.
Consider `COc1ccc(CCN2C(=O)N(NS(C)(=O)=O)CC2c2ccc(OC)c(OC)c2)cc1` (stereo not shown) [Compound 158, N-{4-(3,4-dimethoxyphenyl)-3-[2-(4-methoxyphenyl)ethyl]-2-oxoimidazolidin-1-yl}methanesulfonamide], for which the inhibition at 1 µM is 10%.
`COc1ccc(CCN2C(=O)N(N3CCN(C(=O)N(C)C)CC3)CC2c2ccc(C(C)(C)C)cc2)cc1` (stereo not shown) [Compound 130, 4-{4-(4-tert-butylphenyl)-3-[2-(4-methoxyphenyl)ethyl]-2-oxoimidazolidin-1-yl}-N,N-dimethylpiperazine-1-carboxamide] had an inhibition at 1 µM of 37%.
With `COc1ccc(CCN2C(=O)N(NS(C)(=O)=O)CC2c2ccc3ncccc3c2)cc1` (stereo not shown) [Compound 143, N-{3-[2-(4-methoxyphenyl)ethyl]-2-oxo-4-quinolin-6-ylimidazolidin-1-yl}methanesulfonamide], at 1 µM the inhibition was 21%.
On the same count and under the same terms, under `CCC1(CC)CN(NS(=O)(=O)Cc2cccnc2)C(=O)N1CCc1ccc(OC)cc1` [Compound 162, N-{4,4-diethyl-3-[2-(4-methoxyphenyl)ethyl]-2-oxoimidazolidin-1-yl}-1-pyridin-3-ylmethanesulfonamide] stands 8%; under `COCCOc1ccc(C2CN(NS(C)(=O)=O)C(=O)N2CCc2ccc(OC)cc2)cc1` (stereo not shown) [Compound 151, N-{4-[4-(2-methoxyethoxy)phenyl]-3-[2-(4-methoxyphenyl)ethyl]-2-oxoimidazolidin-1-yl}methanesulfonamide], 8%.
